Reference: US9120791B2, “Indolizine compounds, a process for their preparation and pharmaceutical compositions containing them” (LES LABORATOIRES SERVIER, priority 2012, dated 2015)
Structures can show the parent of a compound that is named as a salt.

Experiments:
Bcl-2 protein = Bcl-2 protein (Homo sapiens (Human), UniProt P10415); assay: Inhibition of Bcl-2 by the fluorescence polarisation technique; type: binding; settings: fluorescence polarisation test; concentration that inhibits fluorescence polarisation by 50%; read-out: IC50 (nM) Bcl-2 FP
Bcl-2 protein, sequence (P10415 whole entry): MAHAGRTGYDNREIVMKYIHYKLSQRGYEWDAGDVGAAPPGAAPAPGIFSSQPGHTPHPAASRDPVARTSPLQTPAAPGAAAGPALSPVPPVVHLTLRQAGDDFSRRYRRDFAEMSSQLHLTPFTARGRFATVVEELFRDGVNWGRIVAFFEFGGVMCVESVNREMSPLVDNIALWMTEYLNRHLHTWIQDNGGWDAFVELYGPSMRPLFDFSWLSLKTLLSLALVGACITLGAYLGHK
Procedure: The fluorescence polarisation tests were carried out on microplates (384 wells). […] After incubation for 2 hours, the fluorescence polarisation is measured.

[1] = test system: RS4;11 leukaemia tumour line; assay: In vitro cytotoxicity (Microculture Tetrazolium Assay, 48 hours); type: cell-based; settings: Homo sapiens, RS4;11 cells, 48 hours exposure, MTT, concentration that inhibits cell viability by 50%, read-out: IC50 (nM) MTT RS4
Procedure: The cytotoxicity studies were carried out on the RS4;11 leukaemia tumour line.
The cells are distributed onto microplates and exposed to the test compounds for 48 hours.

Row | Structure (SMILES) | IC50 (Bcl-2 protein) [nM] | IC50 [1] [nM]
1 | O=C(c1cc(-c2cc(Cl)ccc2C(=O)N2Cc3ccccc3C[C@H]2CN2CCOCC2)n2c1CCCC2)N(c1ccc(O)cc1)c1ccsc1 [Example 85, 3-{5-Chloro-2-[((3S)-3-(4-morpholinylmethyl)-3,4-dihydro-2(1H)-isoquinolinyl)carbonyl]phenyl}-N-(4-hydroxyphenyl)-N-(3-thienyl)-5,6,7,8-tetrahydro-1-indolizine carboxamide hydrochloride] | 41 | 246
2 | Cn1ccc2cc(N(C(=O)c3cc(-c4cc(Cl)ccc4C(=O)N4Cc5ccccc5C[C@H]4CN4CCOCC4)n4c3COCC4)c3ccc(O)cc3)ccc21 [Example 86, 6-{5-Chloro-2-[((3S)-3-(4-morpholinylmethyl)-3,4-dihydro-2(1H)-isoquinolinyl)carbonyl]phenyl}-N-(4-hydroxyphenyl)-N-(1-methyl-1H-indol-5-yl)-3,4-dihydro-1H-pyrrolo[2,1-c][1,4]oxazine-8-carboxamide hydrochloride] | 22 | 29.5
3 | Cn1ccc2cc(N(C(=O)c3cc(-c4cc5c(cc4C(=O)N4Cc6ccccc6C[C@H]4CN4CCOCC4)OCO5)n4c3CCC4)c3ccc(O)cc3)ccc21 [Example 96, N-(4-Hydroxyphenyl)-N-(1-methyl-1H-indol-5-yl)-5-(6-{[(3S)-3-(morpholin-4-ylmethyl)-3,4-dihydroisoquinolin-2(1H)-yl]carbonyl}-1,3-benzodioxol-5-yl)-2,3-dihydro-1H-pyrrolizine-7-carboxamide hydrochloride] | 11 | 58.8
4 | Cc1ccc(N(C(=O)c2cc(-c3cc(Cl)ccc3C(=O)N3Cc4ccccc4C[C@H]3CN3CCOCC3)n3c2CCCC3)c2ccc(O)cc2)cc1Cl [Example 97, N-(3-Chloro-4-methylphenyl)-3-(5-chloro-2-{[(3S)-3-(morpholin-4-ylmethyl)-3,4-dihydroisoquinolin-2(1H)-yl]carbonyl}phenyl)-N-(4-hydroxyphenyl)-5,6,7,8-tetrahydroindolizine-1-carboxamide hydrochloride] | 20 | 45.4
5 | O=C(c1cc(-c2cc(F)ccc2C(=O)N2Cc3ccccc3C[C@H]2CN2CCOCC2)n2c1COCC2)N(c1ccc(O)cc1)c1ccc(F)cc1 [Example 99, 6-(5-Fluoro-2-{[(3S)-3-(morpholin-4-ylmethyl)-3,4-dihydroisoquinolin-2(1H)-yl]carbonyl}phenyl)-N-(4-fluorophenyl)-N-(4-hydroxyphenyl)-3,4-dihydro-1H-pyrrolo[2,1-c][1,4]oxazine-8-carboxamide hydrochloride] | 25 | 213
6 | O=C(c1cc(-c2cc(F)ccc2C(=O)N2Cc3ccccc3C[C@H]2CN2CCOCC2)n2c1CC(O)CC2)N(c1ccccc1)c1ccc(O)cc1 (stereo partly drawn) [Example 100, 3-(5-Fluoro-2-{[(3S)-3-(morpholin-4-ylmethyl)-3,4-dihydroisoquinolin-2(1H)-yl]carbonyl}phenyl)-7-hydroxy-N-(4-hydroxyphenyl)-N-phenyl-5,6,7,8-tetrahydroindolizine-1-carboxamide hydrochloride] | 22 | 856
7 | O=C(c1cc(-c2cc3c(cc2C(=O)N2Cc4ccccc4C[C@H]2C[N+]2([O-])CCOCC2)OCO3)n2c1CCCC2)N(c1ccccc1)c1ccc(O)cc1 [Example 109, N-(4-Hydroxyphenyl)-3-(6-{[(3S)-3-[(4-oxidomorpholin-4-yl)methyl]-3,4-dihydroisoquinolin-2(1H)-yl]carbonyl}-1,3-benzodioxol-5-yl)-N-phenyl-5,6,7,8-tetrahydroindolizine-1-carboxamide] | 30 | 483
8 | CCN(CCOC)C[C@@H]1Cc2ccccc2CN1C(=O)c1ccc(Cl)cc1-c1cc(C(=O)N(c2ccc(O)cc2)c2ccc3c(ccn3C)c2)c2n1CCCC2 [Example 110, 3-(5-Chloro-2-{[(3S)-3-{[ethyl(2-methoxyethyl)amino]methyl}-3,4-dihydroisoquinolin-2(1H)-yl]carbonyl}phenyl)-N-(4-hydroxyphenyl)-N-(1-methyl-1H-indol-5-yl)-5,6,7,8-tetrahydroindolizine-1-carboxamide hydrochloride] | 29 | 129

Further compounds by falling IC50 (Bcl-2 protein), results first:

Row | IC50 (Bcl-2 protein) [nM] | Structure (SMILES) | IC50 [1] [nM]
9 | 12 | Cc1ccc(N(C(=O)c2cc(-c3cc(F)ccc3C(=O)N3Cc4ccccc4C[C@H]3CN3CCOCC3)n3c2COCC3)c2ccc(O)cc2)cc1F [Example 98, N-(3-Fluoro-4-methylphenyl)-6-(5-fluoro-2-{[(3S)-3-(morpholin-4-ylmethyl)-3,4-dihydroisoquinolin-2(1H)-yl]carbonyl}phenyl)-N-(4-hydroxyphenyl)-3,4-dihydro-1H-pyrrolo[2,1-c][1,4]oxazine-8-carboxamide hydrochloride] | 73.5
10 | 10 | COCCN1CCN(C[C@@H]2Cc3ccccc3CN2C(=O)c2cc3c(cc2-c2cc(C(=O)N(c4ccccc4)c4ccc(O)cc4)c4n2CCCC4)OCO3)CC1 [Example 105, N-(4-Hydroxyphenyl)-3-(6-{[(3S)-3-{[4-(2-methoxyethyl)piperazin-1-yl]methyl}-3,4-dihydroisoquinolin-2(1H)-yl]carbonyl}-1,3-benzodioxol-5-yl)-N-phenyl-5,6,7,8-tetrahydroindolizine-1-carboxamide bis(hydrochloride)] | 28.9
11 | 9 | COCCN(C)C[C@@H]1Cc2ccccc2CN1C(=O)c1ccc(Cl)cc1-c1cc(C(=O)N(c2ccc(O)cc2)c2ccc3c(ccn3C)c2)c2n1CCCC2 [Example 108, 3-(5-Chloro-2-{[(3S)-3-{[(2-methoxyethyl)(methyl)amino]methyl}-3,4-dihydroisoquinolin-2(1H)-yl]carbonyl}phenyl)-N-(4-hydroxyphenyl)-N-(1-methyl-1H-indol-5-yl)-5,6,7,8-tetrahydroindolizine-1-carboxamide hydrochloride] | 36.4
12 | 8 | Cc1ccc(N(C(=O)c2cc(-c3cc(F)ccc3C(=O)N3Cc4ccccc4C[C@H]3CN3CCOCC3)n3c2CCCC3)c2ccc(O)cc2)cc1F [Example 91, N-(3-Fluoro-4-methylphenyl)-3-(5-fluoro-2-{[(3S)-3-(morpholin-4-ylmethyl)-3,4-dihydroisoquinolin-2(1H)-yl]carbonyl}phenyl)-N-(4-hydroxyphenyl)-5,6,7,8-tetrahydroindolizine-1-carboxamide hydrochloride] | 65.5
13 | 7 | COc1ccc(C(=O)N2Cc3ccccc3C[C@H]2CN2CCOCC2)c(-c2cc(C(=O)N(c3ccc(O)cc3)c3ccc4c(cnn4C)c3)c3n2CCCC3)c1 [Example 104, N-(4-Hydroxyphenyl)-3-(5-methoxy-2-{[(3S)-3-(morpholin-4-ylmethyl)-3,4-dihydroisoquinolin-2(1H)-yl]carbonyl}phenyl)-N-(1-methyl-1H-indazol-5-yl)-5,6,7,8-tetrahydroindolizine-1-carboxamide hydrochloride] | 21.6
14 | 7 | CN1CCN(C[C@@H]2Cc3ccccc3CN2C(=O)c2ccc(Cl)cc2-c2cc(C(=O)N(c3ccc(O)cc3)c3ccc4c(ccn4C)c3)c3n2CCCC3)CC1=O [Example 107, 3-(5-Chloro-2-{[(3S)-3-[(4-methyl-3-oxopiperazin-1-yl)methyl]-3,4-dihydroisoquinolin-2(1H)-yl]carbonyl}phenyl)-N-(4-hydroxyphenyl)-N-(1-methyl-1H-indol-5-yl)-5,6,7,8-tetrahydroindolizine-1-carboxamide hydrochloride] | 8.29
15 | 6 | Cc1ccc(C(=O)N2Cc3ccccc3C[C@H]2CN2CCOCC2)c(-c2cc(C(=O)N(c3ccc(O)cc3)c3ccc4c(ccn4C)c3)c3n2CCCC3)c1 [Example 95, N-(4-Hydroxyphenyl)-N-(1-methyl-1H-indol-5-yl)-3-(5-methyl-2-{[(3S)-3-(morpholin-4-ylmethyl)-3,4-dihydroisoquinolin-2(1H)-yl]carbonyl}phenyl)-5,6,7,8-tetrahydroindolizine-1-carboxamide hydrochloride] | 13.5
16 | 6 | Cn1ccc2cc(N(C(=O)c3cc(-c4cc(Cl)ccc4C(=O)N4Cc5ccccc5C[C@H]4CN4CCOCC4)n4c3CCCC4)c3ccc(O)cc3)cnc21 [Example 103, 3-(5-Chloro-2-{[(3S)-3-(morpholin-4-ylmethyl)-3,4-dihydroisoquinolin-2(1H)-yl]carbonyl}phenyl)-N-(4-hydroxyphenyl)-N-(1-methyl-1H-pyrrolo[2,3-b]-pyridin-5-yl)-5,6,7,8-tetrahydroindolizine-1-carboxamide] | 16.8
17 | 5 | Cc1ccc(N(C(=O)c2cc(-c3cc4c(cc3C(=O)N3Cc5ccccc5C[C@H]3CN3CCOCC3)OCO4)n3c2COCC3)c2ccc(O)cc2)cc1F [Example 92, N-(3-Fluoro-4-methylphenyl)-N-(4-hydroxyphenyl)-6-(6-{[(3S)-3-(morpholin-4-ylmethyl)-3,4-dihydroisoquinolin-2(1H)-yl]carbonyl}-1,3-benzodioxol-5-yl)-3,4-dihydro-1H-pyrrolo[2,1-c][1,4]oxazine-8-carboxamide hydrochloride] | 40.2
18 | 5 | Cn1ncc2cc(N(C(=O)c3cc(-c4cc(Cl)ccc4C(=O)N4Cc5ccccc5C[C@H]4CN4CCOCC4)n4c3COCC4)c3ccc(O)cc3)ccc21 [Example 101, 6-(5-Chloro-2-{[(3S)-3-(morpholin-4-ylmethyl)-3,4-dihydroisoquinolin-2(1H)-yl]carbonyl}phenyl)-N-(4-hydroxyphenyl)-N-(1-methyl-1H-indazol-5-yl)-3,4-dihydro-1H-pyrrolo[2,1-c][1,4]oxazine-8-carboxamide hydrochloride] | 22.1
19 | 3 | Cn1ncc2cc(N(C(=O)c3cc(-c4cc5c(cc4C(=O)N4Cc6ccccc6C[C@H]4CN4CCOCC4)OCO5)n4c3CCCC4)c3ccc(O)cc3)ccc21 [Example 94, N-(4-Hydroxyphenyl)-N-(1-methyl-1H-indazol-5-yl)-3-(6-{[(3S)-3-(morpholin-4-ylmethyl)-3,4-dihydroisoquinolin-2(1H)-yl]carbonyl}-1,3-benzodioxol-5-yl)-5,6,7,8-tetrahydroindolizine-1-carboxamide hydrochloride] | 8.16
